Measurements published in patent US20050250819A1 (priority 2004, published 2005).

system: Type III-dependent secretion of ExoU by P. aeruginosa PA103; assay: Tertiary assay: Type III-dependent secretion of ExoU by P. aeruginosa PA103; assay type: cell-based; conditions: Pseudomonas aeruginosa, ExoU secreted into extracellular medium
Text: Tertiary assay: inhibition of Type III protein secretion of effectors from a Pseudomonas aeruginosa system. Type III protein secretion is used by P. aeruginosa to secrete several essential virulence determinants. One effector of the type III protein secretion system of P. aeruginosa PA103 is the virulence determinants ExoU.
The amount of Type III-dependent secretion of ExoU by P. aeruginosa PA103 can be determined in a cell-based assay by quantification of the 73.9 kDa ExoU protein secreted into the extracellular medium. Such quantitation can be achieved by growing strain PA103 in a deferrated medium in the presence of nitrilotriacetic acid (an inducer of Type III protein secretion in P. aeruginosa) and either in the presence or absence of putative inhibitors. After a prolonged growth period, the cells are sedimented and the supernatants concentrated by ammonium sulfate precipitation. The proteins in the resuspended pellets are separated by electrophoresis on SDS-polyacrylamide gels. After staining gels with Colloidal Blue™, the 73.9 kDa ExoU band is quantitated by scanning through an imager. The effects of inhibitors on the intensity of the ExoU band may be measured relative to that of untreated controls.

Going from `O=C(N[C@@H](CSCc1ccccc1)C(=O)O)/C(=C\c1cccc(Oc2ccc(Cl)cc2)c1)NC(=O)c1ccc(C(F)(F)F)cc1` [Compound 40, (R)-3-Benzylsulfanyl-2-[3-[3-(4-chlorophenoxy)phenyl]-2-(4-trifluoromethyl-benzoylamino)acryloylamino]propionic acid] to `O=C(N[C@@H](CSCc1ccccc1)C(=O)O)/C(=C\c1ccc(Oc2ccc(Cl)cc2)cc1)NC(=O)c1ccc(C(F)(F)F)cc1` [Compound 58, (R)-3-Benzylsulfanyl-2-[3-[4-(4-chlorophenoxy)phenyl]-2-(4-trifluoromethyl-benzoylamino)acryloylamino]propionic acid], the IC50 rises from 13.1 µM to 48.5 µM (3.7-fold). The first is the more potent here.

Going from `O=C(N[C@H](CSCc1ccccc1)C(=O)O)/C(=C\c1ccc(-c2ccccc2)cc1)NC(=O)c1ccc(C(F)(F)F)cc1` [Compound 6, (S)-3-Benzylsulfanyl-2-[3-biphenyl-4-yl-2-(4-trifluoromethylbenzoylamino)-acryloylamino]propionic acid] to `O=C(N[C@@H](CSCc1ccccc1)C(=O)O)/C(=C\c1ccc(-c2ccccc2)cc1)NC(=O)c1ccc(C(F)(F)F)cc1` [Compound 121], the IC50 falls from 47 µM to 25 µM (1.9-fold). The second is the more potent here.

Compared with `O=C(N[C@@H](CSCc1ccccc1)C(=O)O)/C(=C\c1cccc(Oc2ccccc2)c1)NC(=O)c1ccc(I)cc1` [Compound 21, (R)-3-Benzylsulfanyl-2-[2-(4-iodobenzoylamino)-3-(3-phenoxyphenyl)-acryloylamino]propionic acid], `O=C(N[C@@H](CSCc1ccccc1)C(=O)O)/C(=C\c1cccc(Br)c1)NC(=O)c1ccc(Oc2ccccc2)cc1` [Compound 48, (R)-3-Benzylsulfanyl-2-[3-(3-bromophenyl)-2-(4-phenoxybenzoylamino)-acryloylamino]propionic acid] is 2.8-fold lower in IC50: 69 µM for the first, 24.8 µM for the second. The second is the more potent here.

`CC(C)c1ccc(/C=C(/NC(=O)c2ccc(C(F)(F)F)cc2)C(=O)N[C@@H](CSCc2ccccc2)C(=O)O)cc1` [Compound 34, (R)-3-Benzylsulfanyl-2-[3-(4-isopropylphenyl)-2-(4-trifluoromethyl-benzoylamino)acryloylamino]propionic acid] and `O=C(N[C@@H](CSCc1ccccc1)C(=O)O)/C(=C\c1ccc(Cl)c(Cl)c1)NC(=O)c1ccc(C(F)(F)F)cc1` [Compound 140] are within 1.5-fold of each other in IC50: 50 µM for the first, 48 µM for the second.

First: O=C(NC(CCSCc1ccccc1)C(=O)O)/C(=C\c1ccc(-c2ccccc2)cc1)NC(=O)c1ccc(C(F)(F)F)cc1 (stereo not shown) [Compound 122]
Second: O=C(NC(CCSCc1ccccc1)C(=O)O)/C(=C\c1cccc(C(F)(F)F)c1)NC(=O)c1ccc(-c2ccccc2)cc1 (stereo not shown) [Compound 98]
The IC50 of the first is 1.9-fold higher: 25 µM for the first, 13 µM for the second.

Going from `CN(C(=O)/C(=C\c1cccc(C(F)(F)F)c1)NC(=O)c1ccc(-c2ccccc2)cc1)C(COCc1ccccc1)C(=O)O` (stereo not shown) [Compound 53, 3-Benzyloxy-2-{[2-[(biphenyl-4-carbonyl)amino]-3-(3-trifluoromethylphenyl)-acryloyl]methylamino}propionic acid] to `O=C(N[C@@H](COCc1ccccc1)C(=O)O)/C(=C\c1ccc(-c2ccccc2)cc1)NC(=O)c1ccc(C(F)(F)F)cc1` [Compound 23, (S)-3-Benzyloxy-2-[3-biphenyl-4-yl-2-(4-trifluoromethylbenzoylamino)-acryloylamino]propionic acid], the IC50 falls from 46 µM to 29 µM (1.6-fold). The second is the more potent here.

First: O=C(N[C@@H](CSCc1ccccc1)C(=O)O)/C(=C\c1ccc2ccccc2c1)NC(=O)c1ccc(C(F)(F)F)cc1 [Compound 35, (R)-3-Benzylsulfanyl-2-[3-naphthalen-2-yl-2-(4-trifluoromethylbenzoylamino)-acryloylamino]propionic acid]
Second: O=C(N[C@@H](CSCc1ccccc1)C(=O)O)/C(=C\c1ccc(Oc2ccccc2)cc1)NC(=O)c1ccc(C(F)(F)F)cc1 [Compound 17, (R)-3-Benzylsulfanyl-2-[3-(4-phenoxyphenyl)-2-(4-trifluoromethylbenzoylamino)-acryloylamino]propionic acid]
The IC50 of the first is lower: less than 12.5 µM for the first, 49 µM for the second.

Going from `O=C(N[C@@H](CSCc1ccccc1)C(=O)O)/C(=C\c1ccc(Oc2ccccc2)cc1)NC(=O)c1ccc(Br)cc1` [Compound 20, (R)-3-Benzylsulfanyl-2-[2-(4-bromobenzoylamino)-3-(4-phenoxyphenyl)-acryloylamino]propionic acid] to `O=C(N[C@@H](CSCc1ccccc1)C(=O)O)/C(=C\c1ccc(OCc2ccccc2)cc1)NC(=O)c1ccc(C(F)(F)F)cc1` [Compound 1, (R)-2-[3-(4-Benzyloxyphenyl)-2-(4-trifluoromethylbenzoylamino)acryloylamino]-3-benzylsulfanylpropionic acid], the IC50 falls from 37 µM to 11.6 µM (3.2-fold). The second is the more potent here.

Compared with `O=C(N[C@@H](Cc1ccc(Cl)cc1)C(=O)O)/C(=C\c1cccc(C(F)(F)F)c1)NC(=O)c1ccc(-c2ccccc2)cc1` [Compound 38, (S)-2-[2-[(Biphenyl-4-carbonyl)amino]-3-(3-trifluoromethylphenyl)acryloylamino]-3-(4-chlorophenyl)propionic acid], `O=C(O)C[C@@H](CNC(=O)/C(=C\c1cccc(C(F)(F)F)c1)NC(=O)c1ccc(-c2ccccc2)cc1)c1ccc(Cl)cc1` [Compound 62, (R)-4-[2-[(Biphenyl-4-carbonyl)amino]-3-(3-trifluoromethylphenyl)acryloylamino]-3-(4-chlorophenyl)butyric acid] is 5.1-fold higher in IC50: 17.3 µM for the first, 87.8 µM for the second.

Going from `O=C(N[C@@H](CSCc1ccccc1)C(=O)O)/C(=C\c1cccc(OCc2ccccc2)c1)NC(=O)c1ccc(C(F)(F)F)cc1` [Compound 18, (R)-2-[3-(3-Benzyloxyphenyl)-2-(4-trifluoromethylbenzoylamino)acryloylamino]-3-benzylsulfanylpropionic acid] to `O=C(N[C@@H](CSCc1ccccc1)C(=O)O)/C(=C\c1ccc(Cl)cc1Cl)NC(=O)c1ccc(C(F)(F)F)cc1` [Compound 154], the IC50 falls from 57 µM to 26.4 µM (2.2-fold). The second is the more potent here.

Compared with `O=C(NC(COCc1ccccc1)C(=O)O)/C(=C\c1ccc(Cl)cc1Cl)NC(=O)c1ccc(-c2ccccc2)cc1` (stereo not shown) [Compound 103], `O=C(N[C@@H](CSCc1ccccc1)C(=O)O)/C(=C\c1ccc(Cl)cc1Cl)NC(=O)c1ccc(-c2ccccc2)cc1` [Compound 102] is 2.2-fold higher in IC50: 18 µM for the first, 40 µM for the second.

`O=C(N[C@H](COCc1ccccc1)C(=O)O)/C(=C\c1ccc(OC(F)(F)F)cc1)NC(=O)C1CCN(c2nccc(C(F)(F)F)n2)CC1` [Compound 83, (R)-3-Benzyloxy-2-(3-(4-trifluoromethoxyphenyl)-2-{[1-(4-trifluoromethyl-pyrimidin-2-yl)piperidine-4-carbonyl]amino}acryloylamino)propionic acid] and `O=C(N[C@@H](CSCc1ccccc1)C(=O)O)/C(=C\c1ccc(OC(F)(F)F)cc1)NC(=O)C1CCN(c2nccc(C(F)(F)F)n2)CC1` [Compound 84, (R)-3-Benzylsulfanyl-2-(3-(4-trifluoromethoxyphenyl)-2-{[1-(4-trifluoromethyl-pyrimidin-2-yl)piperidine-4-carbonyl]amino}acryloylamino)propionic acid] are within 1.5-fold of each other in IC50: 84.9 µM for the first, 57.8 µM for the second.

`O=C(N[C@H](COCc1ccccc1)C(=O)O)/C(=C\c1ccc(Cl)c(Cl)c1)NC(=O)c1ccc(OC(F)(F)F)cc1` [Compound 30, (R)-3-Benzyloxy-2-[3-(3,4-dichlorophenyl)-2-(4-trifluoromethoxybenzoylamino)-acryloylamino]propionic acid] and `O=C(N[C@@H](COCc1ccccc1)C(=O)O)/C(=C\c1ccc(Cl)c(Cl)c1)NC(=O)c1ccc(Oc2ccccc2)cc1` [Compound 49, (S)-3-Benzyloxy-2-[3-(3,4-dichlorophenyl)-2-(4-phenoxybenzoylamino)-acryloylamino]propionic acid] are within 1.5-fold of each other in IC50: 54 µM for the first, 75.7 µM for the second.

`O=C(N[C@H](COCc1ccccc1)C(=O)O)/C(=C\c1cccc(C(F)(F)F)c1)NC(=O)C1CCN(c2nccc(C(F)(F)F)n2)CC1` [Compound 77, (R)-3-Benzyloxy-2-(3-(3-trifluoromethylphenyl)-2-{[1-(4-trifluoromethylpyrimidin-2-yl)-piperidine-4-carbonyl]amino}acryloylamino)propionic acid] and `O=C(N[C@@H](CSCc1ccccc1)C(=O)O)/C(=C\c1ccc(I)cc1)NC(=O)C1CCN(c2nccc(C(F)(F)F)n2)CC1` [Compound 76, (R)-3-Benzylsulfanyl-2-(3-(4-iodophenyl)-2-{[1-(4-trifluoromethylpyrimidin-2-yl)-piperidine-4-carbonyl]amino}acryloylamino)propionic acid] are within 1.5-fold of each other in IC50: 60 µM for the first, 56.7 µM for the second.

Compared with `O=C(NC(Cc1ccc(F)cc1)C(=O)O)/C(=C\c1ccc(-c2ccccc2)cc1)NC(=O)c1ccc(C(F)(F)F)cc1` (stereo not shown) [Compound 54, 2-[3-Biphenyl-4-yl-2-(4-trifluoromethylbenzoylamino)acryloylamino]-3-(4-fluoro-phenyl)propionic acid], `O=C(N[C@@H](CSCc1ccccc1)C(=O)O)/C(=C\c1ccc(Cl)c(Cl)c1)NC(=O)c1ccc(-c2ccccc2)cc1` [Compound 105] is 1.7-fold higher in IC50: 19 µM for the first, 33 µM for the second. The first is the more potent here.

In the case of `O=C(NC(COCc1ccccc1)C(=O)O)/C(=C\c1ccc(Cl)c(Cl)c1)NC(=O)c1ccc(-c2ccccc2)cc1` (stereo not shown) [Compound 106], the IC50 is reported as 20 µM.
